# Experimental data taken from ChEMBL document CHEMBL1201862, “PubChem BioAssay data set” (2004).
#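 All cell lines were grown in 96-well plates and treated with compound for 48 hours. GI50 is the concentration that inhibits growth by half.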 Active and inactive are the calls of the source. No stated cut-off is given here; in the data, active = GI50 up to about 1.1 µM and inactive = higher.
# Columns and labels:
# Assay in all cases: DTP human tumour cell line panel, 48 h
# [1] = system: OVCAR-5
# [2] = system: SW-620
# [3] = system: HL-60
# [4] = system: SF-295
# [5] = system: A498
# [6] = system: NCI/ADR-RES
# [7] = system: IGROV-1
# [8] = system: MOLT-4
# [9] = system: HCT-15
# [10] = system: HOP-62
# [11] = system: T47D
# [12] = system: OVCAR-3
# [13] = system: Malme-3M
# [14] = system: HCT-116
# [15] = system: MDA-MB-435
# [16] = system: RPMI-8226
# [17] = system: Hs-578T
# [18] = system: SK-MEL-2
# [19] = system: RXF 393
SMILES,GI50 [1],GI50 [2],GI50 [3],GI50 [4],GI50 [5],GI50 [6],GI50 [7],GI50 [8],GI50 [9],GI50 [10],GI50 [11],GI50 [12],GI50 [13],GI50 [14],GI50 [15],GI50 [16],GI50 [17],GI50 [18],GI50 [19]
Nn1nnc2ccccc21,> 100 µM (inactive),> 100 µM (inactive),> 100 µM (inactive),> 100 µM (inactive),> 100 µM (inactive),> 100 µM (inactive),> 100 µM (inactive),> 100 µM (inactive),> 100 µM,> 100 µM (inactive),> 100 µM (inactive),> 100 µM (inactive),> 100 µM (inactive),> 100 µM (inactive),> 100 µM (inactive),> 100 µM (inactive),,,
Cc1ccccc1N/C(=C(/C(Cl)=C(Cl)Cl)[N+](=O)[O-])n1nnc2ccccc21,16.8 µM (inactive),15.9 µM (inactive),,14.9 µM (inactive),19.4 µM (inactive),18.2 µM (inactive),,> 100 µM (inactive),15.4 µM,16.9 µM (inactive),21 µM (inactive),16.9 µM (inactive),14.7 µM (inactive),42.4 µM (inactive),16.5 µM (inactive),24.1 µM (inactive),11.6 µM (inactive),10.8 µM (inactive),
COc1ccc(NC(C)=O)cc1N1C(=O)/C(=C\c2cccc(Oc3ccccc3)c2)SC1c1ccccc1 (centres undefined),29.3 µM (inactive),21.6 µM (inactive),16.9 µM (inactive),28.4 µM (inactive),56.4 µM (inactive),19.2 µM (inactive),27.4 µM (inactive),10.1 µM (inactive),33.1 µM,34.3 µM (inactive),23.4 µM (inactive),21.8 µM (inactive),65.6 µM (inactive),11.6 µM (inactive),23.3 µM (inactive),17.4 µM (inactive),,30.5 µM (inactive),39.7 µM (inactive)
CC1CN(C)c2ccccc2N=C1NN (centres undefined),> 100 µM (inactive),> 100 µM (inactive),> 100 µM (inactive),> 100 µM (inactive),> 100 µM (inactive),> 100 µM (inactive),> 100 µM (inactive),> 100 µM (inactive),> 100 µM,> 100 µM (inactive),,> 100 µM (inactive),> 100 µM (inactive),> 100 µM (inactive),> 100 µM (inactive),> 100 µM (inactive),> 100 µM (inactive),> 100 µM (inactive),0.217 µM (active)
c1ccc(-c2cnc3nc4ccccc4nc3n2)cc1,13.6 µM (inactive),2.81 µM (inactive),1.82 µM (inactive),6.11 µM (inactive),3.33 µM (inactive),3.81 µM (inactive),3.31 µM (inactive),1.31 µM (inactive),2.5 µM,13.9 µM (inactive),3.85 µM (inactive),1.16 µM (inactive),2.45 µM (inactive),2.86 µM (inactive),1.58 µM (inactive),1.32 µM (inactive),3.78 µM (inactive),2.88 µM (inactive),
COC(=O)Nc1nc(=O)c2ccccc2[nH]1,> 100 µM (inactive),79.6 µM (inactive),> 100 µM (inactive),30.6 µM (inactive),> 10 µM (inactive),> 100 µM (inactive),> 100 µM (inactive),> 100 µM (inactive),> 100 µM,> 100 µM (inactive),> 100 µM (inactive),> 100 µM (inactive),53.3 µM (inactive),48.8 µM (inactive),,,76.7 µM (inactive),> 100 µM (inactive),36.8 µM (inactive)
CC1=NOC2(C1)/C(=N/O)CCC/C2=N\O (centres undefined),> 100 µM (inactive),> 100 µM (inactive),,> 100 µM (inactive),,> 100 µM (inactive),> 100 µM (inactive),> 100 µM (inactive),> 100 µM,> 100 µM (inactive),> 100 µM (inactive),> 100 µM (inactive),> 100 µM (inactive),> 100 µM (inactive),> 100 µM (inactive),> 100 µM (inactive),> 100 µM (inactive),> 100 µM (inactive),3.39 µM (inactive)
O=C(Cc1ccc(O)c(O)c1)NCc1c[nH]c2ccccc12,> 100 µM (inactive),92 µM (inactive),27 µM (inactive),93.3 µM (inactive),> 100 µM (inactive),46.6 µM (inactive),,20.4 µM (inactive),61.1 µM,17.8 µM (inactive),> 100 µM (inactive),42.3 µM (inactive),23.1 µM (inactive),32.4 µM (inactive),,18.1 µM (inactive),> 100 µM (inactive),> 100 µM (inactive),29 µM (inactive)
CC(CO)(CBr)COC(=O)c1cc(Br)c(N)c(Br)c1 (centres undefined),> 100 µM (inactive),> 100 µM (inactive),> 100 µM (inactive),37.4 µM (inactive),62.2 µM (inactive),> 100 µM (inactive),33.9 µM (inactive),> 100 µM (inactive),> 100 µM,32.4 µM (inactive),> 100 µM (inactive),> 100 µM (inactive),,94 µM (inactive),98.9 µM (inactive),> 100 µM (inactive),,> 100 µM (inactive),
CC(C)[C@H](O)C(=O)N[C@H]1Cc2ccc3c(c2)[C@]24C5=C(N=C(O5)[C@H](C(C)C)NC1=O)c1nc(Cl)c(o1)-c1c(Cl)[nH]c5cccc(c15)-c1cccc2c1N[C@H]4O3,0.0242 µM (active),0.00671 µM (active),,0.0167 µM (active),1.27 µM (inactive),0.257 µM (active),0.00342 µM (active),0.001 µM (active),0.0392 µM,2.33 µM (inactive),3.9 µM (inactive),0.00253 µM (active),0.00643 µM (active),0.00339 µM (active),,,0.00256 µM (active),,
CN(C)CCCN1c2ccccc2CCc2ccc([N+](=O)[O-])cc21,27.9 µM (inactive),38.5 µM (inactive),19.8 µM (inactive),17.9 µM (inactive),17.7 µM (inactive),19.1 µM (inactive),14.9 µM (inactive),33.3 µM (inactive),26.9 µM,25.7 µM (inactive),16.5 µM (inactive),34.5 µM (inactive),19.5 µM (inactive),26.9 µM (inactive),17.9 µM (inactive),34.5 µM (inactive),> 100 µM (inactive),20.3 µM (inactive),
CN(C)CCNC(=O)Cn1ccc(=O)c2c([N+](=O)[O-])cccc21,> 100 µM (inactive),> 100 µM (inactive),> 100 µM (inactive),> 100 µM (inactive),> 100 µM (inactive),,> 100 µM (inactive),> 100 µM (inactive),> 100 µM,> 100 µM (inactive),> 100 µM (inactive),> 100 µM (inactive),> 100 µM (inactive),> 100 µM (inactive),> 100 µM (inactive),> 100 µM (inactive),> 100 µM (inactive),> 100 µM (inactive),> 100 µM (inactive)
Cn1c(=O)c2[nH]c(-n3nc(-c4ccccc4)cc3N)nc2n(C)c1=O,21.3 µM (inactive),,12 µM (inactive),4.92 µM (inactive),11.1 µM (inactive),2.4 µM (inactive),1.34 µM (inactive),7.14 µM (inactive),0.8 µM,12.5 µM (inactive),11.3 µM (inactive),5.35 µM (inactive),13.7 µM (inactive),6.49 µM (inactive),18 µM (inactive),12.6 µM (inactive),,14.6 µM (inactive),26.8 µM (inactive)
O=[N+]([O-])c1ccc2nnnn2c1,41.4 µM (inactive),12.7 µM (inactive),16 µM (inactive),11.3 µM (inactive),,25.5 µM (inactive),34.3 µM (inactive),2.62 µM (inactive),8.22 µM,31 µM (inactive),> 100 µM (inactive),13.5 µM (inactive),20.9 µM (inactive),4.18 µM (inactive),11.5 µM (inactive),,5.38 µM (inactive),23.3 µM (inactive),> 100 µM (inactive)
Cc1nc(N)c(N2CCN(C(=O)O)CC2)c(O)n1,> 100 µM (inactive),> 100 µM (inactive),> 100 µM (inactive),> 100 µM (inactive),> 100 µM (inactive),> 100 µM (inactive),,> 100 µM (inactive),> 100 µM,> 100 µM (inactive),> 100 µM (inactive),> 100 µM (inactive),> 100 µM (inactive),> 100 µM (inactive),> 100 µM (inactive),> 100 µM (inactive),> 100 µM (inactive),> 100 µM (inactive),
CCCC(=O)OC1=C(c2ccccc2)Sc2ccccc2-n2cccc21,,> 10 µM (inactive),> 10 µM (inactive),> 10 µM (inactive),,,> 10 µM (inactive),> 10 µM (inactive),> 10 µM,> 10 µM (inactive),> 10 µM (inactive),,> 10 µM (inactive),,8.57 µM (inactive),> 10 µM (inactive),,,> 10 µM (inactive)
c1ccc(C/C(=N\Nc2nc3ccccc3o2)c2ccccn2)cc1,< 0.01 µM (active),< 0.013 µM (active),0.0698 µM (active),0.234 µM (active),0.369 µM (active),0.0246 µM (active),0.0643 µM (active),< 0.01 µM (active),0.0252 µM,0.0354 µM (active),,0.0137 µM (active),0.0233 µM (active),< 0.01 µM (active),0.638 µM (active),0.0482 µM (active),0.569 µM (active),0.929 µM (active),0.0851 µM (active)
